# How the values were obtained:
# [1] = tested on: C. krusei 1447; experiment: Broth microdilution MIC and MFC (CLSI); assay type: cell-based
# [2] = tested on: Hela cell line; conditions: previous study; cited from earlier work
# Text: (§1) Accordingly, despite the high IC50 values for this molecule, fairly significant amounts of antibiotic are required to suppress the cell growth in vitro. The calculated therapeutic index value is sufficiently high due to a low cytotoxicity level for normal cells, which is an undeniable advantage over both pre-scorubicin and most other antitumor compou ...
# [3] = tested on: HepG2 cell line; conditions: previous study; cited from earlier work
# Text: as §1
# [4] = tested on: reference and clinical strains of Aspergillus; experiment: Disc-diffusion antifungal assay, Aspergillus strains; assay type: cell-based; conditions: range over clinical isolates of Aspergillus (Figure S2)
# [5] = tested on: C. tropicalis 156; experiment: Broth microdilution MIC and MFC (CLSI); assay type: cell-based
# [6] = tested on: Candida albicans 1402; experiment: Broth microdilution MIC and MFC (CLSI); assay type: cell-based
# [7] = tested on: Cryptococcus neoformans 297; experiment: Broth microdilution MIC and MFC (CLSI); assay type: cell-based
# [8] = tested on: B16 (mouse melanoma cell line); experiment: MTT cytotoxicity assay; assay type: cell-based; conditions: 72 h, three experiments, each in triplicate
# Procedure: (§2) Experiments for determining the cytotoxic activity of the compound in MTT assays were performed as previously described. The following tumor cell lines were used for this study: HCT-116 (colon cancer cell line), B16 (mouse melanoma cell line), K-562 (leukemia cell line), MDA-MB-231 (breast cancer line), and MCF-7 (breast cancer cell). Human postnatal fibroblasts were used as a normal cell line, and doxorubicin was used as a positive control. The cell lines were cultured in Dulbecco modified Eagle’s medium supplemented with 5% fetal calf serum, 2 mM Lglutamine, 100 U/mL penicillin, and […] streptomycin at 37 °C, 5% CO2 in a humidified atmosphere. Experiments were carried out on cells in the logarithmic phase of growth. The peptide was dissolved in DMSO as a 10 mM stock solution, followed by serial dilutions in water immediately before the experiment. Briefly, cells (5 × 10^3 in […] of culture medium) were plated in a 96-well plate and treated with 0.1% DMSO (blank control) or with […] of the peptide (0.10‒50 μM; each concentration in duplicate) for 72 h. After incubation with peptide, […] of aqueous MTT solution (3-(4,5-dimethylthiazol-2-yl)-2,5-diphenyltetrazolium bromide, 5 mg/mL) were added into each well for 2‒3 h. Formazan was dissolved in DMSO, and the absorbance at 570 nm was measured. The cytotoxicity at a given EmiA concentration was calculated as the percentage of absorbance in wells with peptide-treated cells compared to that of blank control cells (100%). The IC50 (50% growth inhibitory concentration) was defined as the concentration of EmiA that inhibited MTT conversion by 50%. All the experiments were repeated three times, each time in triplicate. EmiA was tested at a range of concentrations, 0.1‒10 μM.
# [9] = tested on: MDA-MB-231 (breast cancer line); experiment: MTT cytotoxicity assay; assay type: cell-based; conditions: 72 h, three experiments, each in triplicate
# Procedure: as §2
# [10] = tested on: MCF-7 (breast cancer cell); experiment: MTT cytotoxicity assay; assay type: cell-based; conditions: 72 h, three experiments, each in triplicate
# Procedure: as §2
# [11] = tested on: HPF (human postnatal fibroblasts, normal cell line); experiment: MTT cytotoxicity assay; assay type: cell-based
# Procedure: as §2
# [12] = tested on: HCT-116 (colon cancer cell line); experiment: MTT cytotoxicity assay; assay type: cell-based; conditions: 72 h, three experiments, each in triplicate
# Procedure: as §2
# [13] = tested on: A. niger 1133 m; experiment: Broth two-fold microdilution MIC (CLSI); assay type: cell-based, Aspergillus niger; conditions: A. niger 1133 m clinical isolate; RPMI 1640 pH 7.0, 35 °C, 48 h
# [14] = tested on: Aspergillus niger ATCC 16404; experiment: Disc-diffusion antifungal assay; assay type: cell-based; conditions: 40 µg/disc; A. niger ATCC 16404
# [15] = tested on: isolates of Aspergillus spp.; experiment: Broth microdilution MIC, ranges over mould isolates; assay type: cell-based; conditions: range over opportunistic and clinical isolates of Aspergillus spp. (Table 4)
# [16] = tested on: A. terreus 497; experiment: Disc-diffusion antifungal assay; assay type: cell-based; conditions: 40 µg/disc; A. terreus 497, pathogenic clinical isolate
# [17] = tested on: A. terreus 3 K; experiment: Broth two-fold microdilution MIC (CLSI); assay type: cell-based; conditions: A. terreus 3 K; RPMI 1640 pH 7.0, 35 °C, 48 h
# [18] = tested on: C. glabrata 1402; experiment: Broth microdilution MIC and MFC (CLSI); assay type: cell-based
# [19] = tested on: clinical yeast isolates (Candida, Cryptococcus); experiment: Broth microdilution MIC/MFC, pathogenic multidrug yeast strains; assay type: cell-based; conditions: isolates of C. albicans, C. glabrata and C. neoformans
# [20] = tested on: A. terreus 497; experiment: Broth two-fold microdilution MIC (CLSI); assay type: cell-based; conditions: A. terreus 497 clinical isolate; RPMI 1640 pH 7.0, 35 °C, 48 h
# [21] = tested on: A. niger 1133 m; experiment: Disc-diffusion antifungal assay; assay type: cell-based, Aspergillus niger; conditions: 40 µg/disc, pathogenic clinical isolate
# [22] = tested on: A. niger ATCC 16404; experiment: Broth two-fold microdilution MIC (CLSI); assay type: cell-based, Aspergillus niger; conditions: A. niger ATCC 16404; RPMI 1640 pH 7.0, 35 °C, 48 h, no visible growth
# [23] = tested on: C. parapsilosis 571; experiment: Broth microdilution MIC and MFC (CLSI); assay type: cell-based
# [24] = tested on: A. fumigatus VKM F-37; experiment: Broth two-fold microdilution MIC (CLSI); assay type: cell-based, Aspergillus fumigatus; conditions: A. fumigatus VKM F-37; RPMI 1640 pH 7.0, 35 °C, 48 h
# [25] = tested on: A. terreus 3 K; experiment: Disc-diffusion antifungal assay; assay type: cell-based; conditions: 40 µg/disc
# [26] = tested on: A. fumigatus 390 m; experiment: Broth two-fold microdilution MIC (CLSI); assay type: cell-based, Aspergillus fumigatus; conditions: A. fumigatus 390 m clinical isolate; RPMI 1640 pH 7.0, 35 °C, 48 h
substance,measurement,setting,value
"Methyldecanoyl-MePro-AHMOD-Ala-Aib-Ile-Iva-βAla-Alaol-Glyol [EmiA, emericellipsin A, nonribosomal lipopeptaibol, major compound of E. alkalina VKPM F1428]",MFC,"[1]; C. krusei 1447, lowest concentration causing 95% death",2 µg/mL
same,MIC,"[1]; C. krusei 1447 clinical isolate, RPMI 1640 pH 7.0, 35 °C, 24 h",0.5 µg/mL
same,EC50,[2],< 0.5 µM
same,EC50,[3],2.8 µM
same,inhibition zones,[4],15–19 mm
same,MFC,"[5]; C. tropicalis 156, lowest concentration causing 95% death",2 µg/mL
same,MIC,"[5]; C. tropicalis 156 clinical isolate, RPMI 1640 pH 7.0, 35 °C, 24 h",1 µg/mL
same,MFC,"[6]; Candida albicans 1402, lowest concentration causing 95% death, plated on PDA agar",4 µg/mL
same,MIC,"[6]; Candida albicans 1402 clinical isolate, RPMI 1640 pH 7.0, 35 °C, 24 h",2 µg/mL
same,MFC,"[7]; Cryptococcus neoformans 297, lowest concentration causing 95% death",0.5 µg/mL
same,MIC,"[7]; Cryptococcus neoformans 297 clinical isolate, RPMI 1640 pH 7.0, 35 °C, 24 h",0.5 µg/mL
same,IC50,[8],16 ± 2.08 µM
same,IC50,[9],8 ± 1.04 µM
same,IC50,[10],11 ± 1.2 µM
same,IC50,"[11]; HPF normal fibroblasts, MTT, 72 h, three experiments, each in triplicate",11.5 ± 1.5 µM
same,antiproliferative activity inferior to doxorubicin,"[11]; interaction with PFH, relative to doxorubicin",60 times
same,IC50,[12],2.3 ± 0.3 µM
same,Minimal Inhibitory Concentration (MIC),[13],4 µg/mL
same,Zone of Inhibition,[14],25 ± 0.21 mm
same,MIC range,[15],0.5 to 4 µg/mL
same,Zone of Inhibition,[16],14 ± 0.28 mm
same,Minimal Inhibitory Concentration (MIC),[17],0.5 µg/mL
same,MFC,"[18]; C. glabrata 1402, lowest concentration causing 95% death",0.5 µg/mL
same,MIC,"[18]; C. glabrata 1402 clinical isolate, RPMI 1640 pH 7.0, 35 °C, 24 h",0.25 µg/mL
same,MIC/MFCs range,[19],0.25 to 4 µg/mL
same,Minimal Inhibitory Concentration (MIC),[20],1 µg/mL
same,Zone of Inhibition,[21],18 ± 0.27 mm
same,Minimal Inhibitory Concentration (MIC),[22],4 µg/mL
same,MFC,"[23]; C. parapsilosis 571, lowest concentration causing 95% death",1 µg/mL
same,MIC,"[23]; C. parapsilosis 571 clinical isolate, RPMI 1640 pH 7.0, 35 °C, 24 h",1 µg/mL
same,Minimal Inhibitory Concentration (MIC),[24],2 µg/mL
same,Zone of Inhibition,[25],12 ± 0.25 mm
same,Minimal Inhibitory Concentration (MIC),[26],2 µg/mL
